Laboratory results published in patent US20240425855A1, “NUCLEIC ACID-[…] RNAS FOR TRIGGER-[…]” (Hoffmann-La Roche Inc., priority 2021, published 2024).

Assays:
[1] = system: K4/K19 tetracycline-responsive ribozyme-switch; assay: K4/K19 tetracycline-responsive ribozyme-switch controlling GFP expression in stably transfected cells (FACS); format: cell-based, CHO; conditions: 50 μM tetracycline concentration; GFP readout
Procedure: The method according to the current invention is exemplified first in the following using the K4/K19 tetracycline-responsive ribozyme-switch generated by Beilstein et al. (ACS Synth. Biol., […] (2015) 526-534). This is presented solely as an illustration of the method according to the invention and shall not be construed as limitation thereof. The true scope is set forth in the appended claims.
Whilst the output measurement was different (Luciferase vs GFP) a 1.9× fold-increase at 50 μM tetracycline concentration was achieved (FIG. 4 and FIG. 5).
For testing and screening RNA-switches that control the mRNA degradation of a GFP reporter were cloned into the front plasmid, whereas the red-shifted iRFP gene was cloned into the back plasmid and was used for fluorescence normalization purposes. Expressed genes were placed under the control of a strong promoter (SV40). The RNA-switches constructs were cloned downstream of the GFP gene and before the bovine growth hormone polyadenylation (bGH-polyA) signal sequence. For each construct, both the complementary and anti-complementary strands were ordered as 5′-phosphorylated ssDNA oligonucleotides at Microsynth AG (Belgach, Switzerland) and were annealed by snap cooling at 0.166 μM concentration. […]

[2] = system: Env140-based LNA-regulatable ribozyme (cell lines S69 and S70); assay: LNA-activation assay and flow cytometry of GFP expression; set-up: species or system CHO; conditions: stable cell lines with inducible/switchable construct and inactive construct; FACS
Procedure: S69 and S70, were seeded at 50,000 cells/well into a flat-bottom round wells 96-well microplate, in 200 μL media, and incubated in standard static cell culture condition with or without 12.5 μM LNA oligonucleotide added from three to seven days, after which a 70 μL aliquot was removed and analyzed by flow cytometry. Flow cytometry was performed on a 4-6 color BD FACSCanto™ or FACS Celesta™ System using the FITC channel for the evaluation of GFP expression, and APC channel for iRFP expression. The population of cells was gated to avoid cell doublets detected by the forward and side scattering.

Compound | fold-increase (GFP output) [1] [fold] | shift of GFP fluorescence upon application of the LNA [2]
CN(C)[C@@H]1C(O)=C(C(N)=O)C(=O)[C@@]2(O)C(O)=C3C(=O)c4c(O)cccc4[C@@](C)(O)[C@H]3C[C@@H]12 [tetracycline] | 1.9 | 
ATTGTGCCTGAGGGTAGT (all phosphorothioate, sugars by position and methylation of C not given here; some nucleotides are LNA) |  | fluorescence is shifted
